Reference: ChEMBL document CHEMBL1201861, “Genomics of Drug Sensitity in Cancer screening data, Wellcome Trust Sanger Institute”
pIC50: −log10 of the molar value.

How the values were obtained:
[1] = tested on: LK-2; test: cells; format: functional, cell-based; conditions: Homo sapiens;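 also: growth inhibition of LK-2 cells, read out with a viability assay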
Description: SANGER: Inhibition of human LK-2 cell growth in a cell viability assay.

[2] = tested on: S-117; test: cells; format: functional, cell-based; conditions: Homo sapiens
Description: SANGER: Inhibition of human S-117 cell growth in a cell viability assay.

[3] = tested on: NCI-H719; test: cells; format: functional, cell-based; conditions: Homo sapiens;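 also: growth inhibition of the cultured cell line, read out with a viability assay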
Description: SANGER: Inhibition of human NCI-H719 cell growth in a cell viability assay.

[4] = tested on: SK-LU-1; test: cells; format: functional, cell-based; conditions: Homo sapiens;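 also: cell viability assay measuring growth inhibition of human SK-LU-1 cells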
Description: SANGER: Inhibition of human SK-LU-1 cell growth in a cell viability assay.

[5] = tested on: SK-MEL3; test: cells; format: functional, cell-based, SK-MEL-3; conditions: Homo sapiens;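 also: growth inhibition of human SK-MEL-3 cells, read out with a cell viability assay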
Description: SANGER: Inhibition of human SK-MEL-3 cell growth in a cell viability assay.

[6] = tested on: 647-V; test: cells; format: functional, cell-based; conditions: Homo sapiens;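 also: growth inhibition of 647-V cells, read out with a cell viability assay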
Description: SANGER: Inhibition of human 647-V cell growth in a cell viability assay.

[7] = tested on: RPMI-2650; test: cells; format: functional, cell-based; conditions: Homo sapiens
Description: SANGER: Inhibition of human RPMI-2650 cell growth in a cell viability assay.

[8] = tested on: SW1990; test: cells; format: functional, cell-based; conditions: Homo sapiens
Description: SANGER: Inhibition of human SW1990 cell growth in a cell viability assay.

[9] = tested on: BL-70; test: SANGER: Inhibition of human BL-70 cell growth in a cell viability assay.; format: functional, cell-based
[10] = tested on: PC-14; test: cells; format: functional, cell-based; conditions: Homo sapiens;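 also: cell viability assay measuring inhibition of PC-14 cell growth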
Description: SANGER: Inhibition of human PC-14 cell growth in a cell viability assay.

[11] = tested on: IMR-5; test: cells; format: functional, cell-based; conditions: Homo sapiens;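 also: growth inhibition of human IMR-5 cells, read out with a cell viability assay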
Description: SANGER: Inhibition of human IMR-5 cell growth in a cell viability assay.

[12] = tested on: CESS; test: SANGER: Inhibition of human CESS cell growth in a cell viability assay.; format: functional, cell-based
[13] = tested on: ACHN; test: cells; format: functional, cell-based; conditions: Homo sapiens;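 also: cell viability read-out used to gauge how strongly growth of human ACHN cells is suppressed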
Description: SANGER: Inhibition of human ACHN cell growth in a cell viability assay.

[14] = tested on: LU-99A; test: cells; format: functional, cell-based; conditions: Homo sapiens;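 also: growth inhibition of LU-99A cells, read out with a cell viability assay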
Description: SANGER: Inhibition of human LU-99A cell growth in a cell viability assay.

[15] = tested on: CHL-1; test: cells; format: functional, cell-based; conditions: Homo sapiens;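 also: cell growth inhibition, read out with a cell viability assay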
Description: SANGER: Inhibition of human CHL-1 cell growth in a cell viability assay.

[16] = tested on: M14; test: cells; format: functional, cell-based; conditions: Homo sapiens;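 also: growth inhibition of M14 cells, read out with a cell viability assay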
Description: SANGER: Inhibition of human M14 cell growth in a cell viability assay.

[17] = tested on: MKN-28; test: cells; format: functional, cell-based; conditions: Homo sapiens;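 also: cell viability assay read-out, IC50 reflects suppression of growth of human MKN-28 cells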
Description: SANGER: Inhibition of human MKN28 cell growth in a cell viability assay.

[18] = tested on: 8505C; test: cells; format: functional, cell-based; conditions: Homo sapiens
Description: SANGER: Inhibition of human 8505C cell growth in a cell viability assay.

[19] = tested on: CAMA-1; test: cells; format: functional, cell-based; conditions: Homo sapiens;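 also: growth inhibition of CAMA-1 cells, read out with a cell viability assay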
Description: SANGER: Inhibition of human CAMA-1 cell growth in a cell viability assay.

[20] = tested on: SAS; test: cells; format: functional, cell-based; conditions: Homo sapiens;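 also: growth inhibition of SAS cells, read out with a cell viability assay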
Description: SANGER: Inhibition of human SAS cell growth in a cell viability assay.

[21] = tested on: MCF7; test: cells; format: functional, cell-based; conditions: Homo sapiens;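 also: growth inhibition of human MCF7 cells, read out with a cell viability assay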
Description: SANGER: Inhibition of human MCF7 cell growth in a cell viability assay.

[22] = tested on: SW626; test: cells; format: functional, cell-based; conditions: Homo sapiens;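 also: growth inhibition of SW626 cells, measured with a cell viability assay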
Description: SANGER: Inhibition of human SW626 cell growth in a cell viability assay.

[23] = tested on: NCI-H661; test: cells; format: functional, cell-based; conditions: Homo sapiens;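 also: cell viability assay read-out, IC50 being the concentration that inhibits growth of the cells by half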
Description: SANGER: Inhibition of human NCI-H661 cell growth in a cell viability assay.

[24] = tested on: IGROV-1; test: cells; format: functional, cell-based; conditions: Homo sapiens;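 also: reduction of IGROV-1 cell growth, read out with a viability assay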
Description: SANGER: Inhibition of human IGROV-1 cell growth in a cell viability assay.

[25] = tested on: 5637; test: cells; format: functional, cell-based; conditions: Homo sapiens
Description: SANGER: Inhibition of human 5637 cell growth in a cell viability assay.

[26] = tested on: G-402; test: cells; format: functional, cell-based; conditions: Homo sapiens
Description: SANGER: Inhibition of human G-402 cell growth in a cell viability assay.

[27] = tested on: JEG-3; test: cells; format: functional, cell-based; conditions: Homo sapiens;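 also: growth inhibition of human JEG-3 cells, read out with a cell viability assay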
Description: SANGER: Inhibition of human JEG-3 cell growth in a cell viability assay.

[28] = tested on: LB996-RCC; test: cells; format: functional, cell-based; conditions: Homo sapiens
Description: SANGER: Inhibition of human LB996-RCC cell growth in a cell viability assay.

[29] = tested on: SW780; test: cells; format: functional, cell-based; conditions: Homo sapiens;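 also: growth inhibition of the cells, read out with a cell viability assay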
Description: SANGER: Inhibition of human SW780 cell growth in a cell viability assay.

[30] = tested on: COLO-678; test: cells; format: functional, cell-based; conditions: Homo sapiens
Description: SANGER: Inhibition of human COLO-678 cell growth in a cell viability assay.

[31] = tested on: COR-L23; test: cells; format: functional, cell-based; conditions: Homo sapiens;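 also: cell viability assay measuring how strongly compounds suppress growth of COR-L23 cells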
Description: SANGER: Inhibition of human COR-L23 cell growth in a cell viability assay.

[32] = tested on: CHP-126; test: cells; format: functional, cell-based; conditions: Homo sapiens
Description: SANGER: Inhibition of human CHP-126 cell growth in a cell viability assay.

[33] = tested on: GP5d; test: cells; format: functional, cell-based; conditions: Homo sapiens;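 also: growth inhibition of human GP5d cells, read out with a cell viability assay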
Description: SANGER: Inhibition of human GP5d cell growth in a cell viability assay.

[34] = tested on: LN-405; test: cells; format: functional, cell-based; conditions: Homo sapiens
Description: SANGER: Inhibition of human LN-405 cell growth in a cell viability assay.

[35] = tested on: PC-3; test: cells; format: functional, cell-based; conditions: Homo sapiens;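 also: cell viability assay measuring growth inhibition of PC-3 cells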
Description: SANGER: Inhibition of human PC-3 cell growth in a cell viability assay.

[36] = tested on: PANC-03-27; test: cells; format: functional, cell-based; conditions: Homo sapiens
Description: SANGER: Inhibition of human PANC-03-27 cell growth in a cell viability assay.

[37] = tested on: NCI-H1694; test: cells; format: functional, cell-based; conditions: Homo sapiens;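 also: cell viability assay measuring inhibition of growth in human NCI-H1694 cells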
Description: SANGER: Inhibition of human NCI-H1694 cell growth in a cell viability assay.

[38] = tested on: SAOS-2; test: cells; format: functional, cell-based; conditions: Homo sapiens;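 also: growth inhibition of human Saos-2 cells determined by a cell viability assay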
Description: SANGER: Inhibition of human Saos-2 cell growth in a cell viability assay.

[39] = tested on: CAL-12T; test: cells; format: functional, cell-based, Homo sapiens; conditions: Homo sapiens, CAL-12T;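 also: growth inhibition of human CAL-12T cells, read out with a cell viability assay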
Description: SANGER: Inhibition of human CAL-12T cell growth in a cell viability assay.

[40] = tested on: RL; test: cells; format: functional, cell-based; conditions: Homo sapiens
Description: SANGER: Inhibition of human RL cell growth in a cell viability assay.

[41] = tested on: A-375; test: cells; format: functional, cell-based; conditions: Homo sapiens;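 also: growth inhibition of A375 cells, read out with a cell viability assay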
Description: SANGER: Inhibition of human A375 cell growth in a cell viability assay.

[42] = tested on: KARPAS-422; test: cells; format: functional, cell-based; conditions: Homo sapiens
Description: SANGER: Inhibition of human KARPAS-422 cell growth in a cell viability assay.

[43] = tested on: DMS-153; test: cells; format: functional, cell-based; conditions: Homo sapiens
Description: SANGER: Inhibition of human DMS-153 cell growth in a cell viability assay.

[44] = tested on: HSC-3; test: cells; format: functional, cell-based; conditions: Homo sapiens
Description: SANGER: Inhibition of human HSC-3 cell growth in a cell viability assay.

[45] = tested on: COLO-680N; test: cells; format: functional, cell-based; conditions: Homo sapiens;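 also: cell viability assay used to measure inhibition of COLO-680N cell growth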
Description: SANGER: Inhibition of human COLO-680N cell growth in a cell viability assay.

[46] = tested on: 639-V; test: cells; format: functional, cell-based; conditions: Homo sapiens;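 also: growth inhibition of 639-V cells, read out with a cell viability assay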
Description: SANGER: Inhibition of human 639-V cell growth in a cell viability assay.

[47] = tested on: OPM-2; test: cells; format: functional, cell-based; conditions: Homo sapiens;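 also: growth of OPM-2 cells measured with a viability assay, IC50 for suppression of proliferation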
Description: SANGER: Inhibition of human OPM-2 cell growth in a cell viability assay.

[48] = tested on: OVCAR-3; test: cells; format: functional, cell-based; conditions: Homo sapiens;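 also: growth inhibition of human OVCAR-3 cells, determined by a cell viability assay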
Description: SANGER: Inhibition of human OVCAR-3 cell growth in a cell viability assay.

[49] = tested on: SCC-4; test: cells; format: functional, cell-based; conditions: Homo sapiens;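 also: growth inhibition of human SCC-4 cells, read out as cell viability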
Description: SANGER: Inhibition of human SCC-4 cell growth in a cell viability assay.

[50] = tested on: BC1 cell line; test: SANGER: Inhibition of human BC-1 cell growth in a cell viability assay.; format: functional, cell-based
[51] = tested on: SK-MEL-28; test: cells; format: functional, cell-based; conditions: Homo sapiens;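 also: growth inhibition of human SK-MEL-28 cells, read out with a cell viability assay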
Description: SANGER: Inhibition of human SK-MEL-28 cell growth in a cell viability assay.

[52] = tested on: HT-1376; test: cells; format: functional, cell-based; conditions: Homo sapiens
Description: SANGER: Inhibition of human HT-1376 cell growth in a cell viability assay.

[53] = tested on: KYSE-520 cell line; test: cells; format: functional, cell-based; conditions: Homo sapiens;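 also: growth inhibition of human KYSE-520 cells, read out with a viability assay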
Description: SANGER: Inhibition of human KYSE-520 cell growth in a cell viability assay.

[54] = tested on: CA46; test: cells; format: functional, cell-based; conditions: Homo sapiens;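 also: growth inhibition of human CA46 cells, read out by a cell viability assay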
Description: SANGER: Inhibition of human CA46 cell growth in a cell viability assay.

[55] = tested on: NCI-H2342; test: cells; format: functional, cell-based; conditions: Homo sapiens;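 also: growth inhibition of the cancer cell line, determined with a cell viability assay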
Description: SANGER: Inhibition of human NCI-H2342 cell growth in a cell viability assay.

[56] = tested on: NCI-H441; test: cells; format: functional, cell-based; conditions: Homo sapiens;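 also: growth inhibition of NCI-H441 cells, read out with a cell viability assay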
Description: SANGER: Inhibition of human NCI-H441 cell growth in a cell viability assay.

[57] = tested on: LP-1; test: cells; format: functional, cell-based; conditions: Homo sapiens;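 also: growth inhibition of human LP-1 cells, with the read-out taken from a cell viability assay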
Description: SANGER: Inhibition of human LP-1 cell growth in a cell viability assay.

[58] = tested on: NCI-H28; test: cells; format: functional, cell-based; conditions: Homo sapiens;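 also: growth inhibition of human NCI-H28 cells, read out as cell viability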
Description: SANGER: Inhibition of human NCI-H28 cell growth in a cell viability assay.

[59] = tested on: PA-1; test: cells; format: functional, cell-based; conditions: Homo sapiens;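 also: IC50 for suppression of PA-1 cell proliferation, determined with a cell viability read-out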
Description: SANGER: Inhibition of human PA-1 cell growth in a cell viability assay.

[60] = tested on: KYSE-410; test: cells; format: functional, cell-based; conditions: Homo sapiens;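 also: growth inhibition of KYSE-410 cells, measured through a cell viability readout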
Description: SANGER: Inhibition of human KYSE-410 cell growth in a cell viability assay.

[61] = tested on: NCI-H1437; test: cells; format: functional, cell-based; conditions: Homo sapiens;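 also: growth inhibition of human NCI-H1437 cells, read out by a cell viability assay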
Description: SANGER: Inhibition of human NCI-H1437 cell growth in a cell viability assay.

[62] = tested on: HCC1569; test: cells; format: functional, cell-based; conditions: Homo sapiens;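 also: growth inhibition of human HCC1569 cells, read out with a cell viability assay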
Description: SANGER: Inhibition of human HCC1569 cell growth in a cell viability assay.

[63] = tested on: HEC-1; test: cells; format: functional, cell-based; conditions: Homo sapiens;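 also: growth inhibition of the cell line, read out with a cell viability assay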
Description: SANGER: Inhibition of human HEC-1 cell growth in a cell viability assay.

`N#C/C(=C1/Nc2ccccc2S1)c1ccnc(NCCc2cccnc2)n1` showed a pIC50 [1] of 5.18, a pIC50 [2] of 5.16 and a pIC50 [3] of under 5.10. For the same compound, the pIC50 [4] was 5.33, the pIC50 [5] was under 5.10 and the pIC50 [6] was under 5.10. For the same compound, the pIC50 [7] was 5.59, the pIC50 [8] was under 5.10 and the pIC50 [9] was 5.31. For the same compound, the pIC50 [10] was 5.44, the pIC50 [11] was under 5.10 and the pIC50 [12] was under 5.10. For the same compound, the pIC50 [13] was 5.63, the pIC50 [14] was under 5.10 and the pIC50 [15] was 5.21. It also gave a pIC50 [16] of under 5.10, a pIC50 [17] of under 5.10 and a pIC50 [18] of 5.54. The pIC50 [19] was under 5.10, the pIC50 [20] was under 5.10 and the pIC50 [21] was 5.82. It also gave a pIC50 [22] of 5.23, a pIC50 [23] of under 5.10 and a pIC50 [24] of 6.22. For the same compound, the pIC50 [25] was under 5.10, the pIC50 [26] was under 5.10 and the pIC50 [27] was under 5.10. For the same compound, the pIC50 [28] was 5.54, the pIC50 [29] was under 5.10 and the pIC50 [30] was under 5.10. The pIC50 [31] was under 5.10, the pIC50 [32] was under 5.10 and the pIC50 [33] was 5.12. The pIC50 [34] was under 5.10, the pIC50 [35] was under 5.10 and the pIC50 [36] was 5.54. The pIC50 [37] was under 5.10, the pIC50 [38] was under 5.10 and the pIC50 [39] was 5.89. For the same compound, the pIC50 [40] was under 5.10, the pIC50 [41] was under 5.10 and the pIC50 [42] was under 5.10. For the same compound, the pIC50 [43] was under 5.10, the pIC50 [44] was under 5.10 and the pIC50 [45] was under 5.10. For the same compound, the pIC50 [46] was 5.32, the pIC50 [47] was under 5.10 and the pIC50 [48] was under 5.10. It also gave a pIC50 [49] of under 5.10, a pIC50 [50] of 5.27 and a pIC50 [51] of under 5.10. It also gave a pIC50 [52] of 5.14, a pIC50 [53] of under 5.10 and a pIC50 [54] of 5.26. For the same compound, the pIC50 [55] was 5.34, the pIC50 [56] was 5.26 and the pIC50 [57] was under 5.10. For the same compound, the pIC50 [58] was 5.48, the pIC50 [59] was 5.82 and the pIC50 [60] was under 5.10. For the same compound, the pIC50 [61] was 5.38, the pIC50 [62] was 5.71 and the pIC50 [63] was under 5.10.
Compound `C/C(O)=C(\C#N)C(=O)Nc1cc(Br)ccc1Br` has a pIC50 [1] of under 4.80, a pIC50 [2] of under 4.80 and a pIC50 [3] of under 4.80. The pIC50 [4] was under 4.80, the pIC50 [5] was under 4.80 and the pIC50 [6] was under 4.80. The pIC50 [7] was under 4.80, the pIC50 [8] was under 4.80 and the pIC50 [9] was under 4.80. The pIC50 [10] was under 4.80, the pIC50 [11] was under 4.80 and the pIC50 [12] was under 4.80. It also gave a pIC50 [13] of under 4.80, a pIC50 [14] of under 4.80 and a pIC50 [15] of under 4.80. It also gave a pIC50 [16] of under 4.80, a pIC50 [17] of under 4.80 and a pIC50 [18] of under 4.80. The pIC50 [19] was under 4.80, the pIC50 [20] was under 4.80 and the pIC50 [21] was under 4.80. The pIC50 [22] was under 4.80, the pIC50 [23] was under 4.80 and the pIC50 [24] was under 4.80. For the same compound, the pIC50 [25] was under 4.80, the pIC50 [26] was under 4.80 and the pIC50 [27] was under 4.80. It also gave a pIC50 [28] of under 4.80, a pIC50 [29] of under 4.80 and a pIC50 [30] of under 4.80. It also gave a pIC50 [31] of under 4.80, a pIC50 [32] of under 4.80 and a pIC50 [33] of under 4.80. It also gave a pIC50 [34] of under 4.80, a pIC50 [35] of under 4.80 and a pIC50 [36] of under 4.80. The pIC50 [37] was under 4.80, the pIC50 [38] was under 4.80 and the pIC50 [39] was under 4.80. It also gave a pIC50 [40] of under 4.80, a pIC50 [41] of under 4.80 and a pIC50 [42] of under 4.80. It also gave a pIC50 [43] of under 4.80, a pIC50 [44] of under 4.80 and a pIC50 [45] of under 4.80. For the same compound, the pIC50 [46] was under 4.80, the pIC50 [47] was under 4.80 and the pIC50 [48] was under 4.80. For the same compound, the pIC50 [49] was under 4.80, the pIC50 [50] was under 4.80 and the pIC50 [51] was under 4.80. It also gave a pIC50 [52] of under 4.80, a pIC50 [53] of under 4.80 and a pIC50 [54] of under 4.80. For the same compound, the pIC50 [55] was under 4.80, the pIC50 [56] was under 4.80 and the pIC50 [57] was under 4.80. For the same compound, the pIC50 [58] was under 4.80, the pIC50 [59] was under 4.80 and the pIC50 [60] was under 4.80. The pIC50 [61] was under 4.80, the pIC50 [62] was under 4.80 and the pIC50 [63] was under 4.80.
